Data on one molecule can be found in patent publication US6814953B2, “Bronchodilating compositions and methods” (Dey L.P., priority 2001, dated 2004).

SMILES strings stand for the structures. In brackets after ≈: the same amount, converted by molar mass.

For data set [1] the following is noted: patients with reversible obstructive respiratory diseases; cited from earlier work.
Data set [2] in a line: Estimated shelf-life of formoterol in the compositions (Arrhenius kinetics). The data set is classed as physicochemical. The following applies: in the compositions provided herein. The source says: (§1) Stability samples of the solutions prepared in EXAMPLES 1 and 2 were placed in scintillation vials with teflon-lined caps and stored in stability ovens at accelerated temperatures. At selected time points, aliquots of the samples were removed from the scintillation vials.

Data set [3] can be described thus: Decomposition kinetics of formoterol in aqueous solution (stability testing by HPLC at accelerated temperatures). The data set is classed as physicochemical.
Excerpt: In the embodiments herein, the compositions have a pH of about 2.0 to about 8.0. In other embodiments, the compositions have a pH of about 4.0 to about 6.0, or about 4.5 to about 5.5. In certain of the above embodiments, the compositions are formulated at a pH of about 4, 4.4 or 4.6 up to about 5.5, 5.7 or 6. In other embodiments, the pH is about 5.0.
In other of the above embodiments, the compositions further contain a buffer, including, but not limited to, citric acid/phosphate, acetate, barbital, borate, Britton-Robinson, cacodylate, citrate, collidine, formate, maleate, Mcllvaine, phosphate, Prideaux-Ward, succinate, citrate-phosphate-borate (Teorell-Stanhagen), veronal acetate, MES (2-(N-morpholino)ethanesulfonic acid), BIS-TRIS (bis(2-hydroxyethyl)iminotris(hydroxymethyl)methane), ADA (N-(2-acetamido)-2-iminodiacetic acid), ACES (N-(carbamoylmethyl)-2-aminoethanesulfonic acid), PIPES (piperazirie-N,N′-bis(2-ethanesulfonic acid)), MOPSO (3-(N-morpholino)-2-hydroxypropanesulfonic acid), BIS-TRIS PROPANE (1,3-bis(tris(hydroxymethyl)methylamino)propane), BES (N,N-bis(2-hydroxyethyl)-2-aminoethanesulfonic acid), MOPS (3-(N-morpholino)propanesulfonic acid), TES (N-tris(hydroxymethyl)methyl-2-aminoethanesulfonic acid), HEPES (N-(2-hydroxyethyl)piperazine-N′-(2-ethanesulfonic acid), DIPSO (3-(N,N-bis(2-hydroxyethyl)amino)-2-hydroxypropanesulfonic acid), MOBS (4-(N-morpholino)butanesulfonic acid), TAPSO (3-(N-tris(hydroxymethyl)methylamino)-2-hydroxypropanesulfonic acid), TRIZMAO (tris(hydroxymethylaminomethane), HEPPSO (N-(2-hydroxyethyl)piperazine-N′-(2-hydroxypropanesulfonic acid), POPSO (piperazine-N,N′-bis(2-hydroxypropanesulfonic acid)), TEA (triethanolamine), EPPS (N-(2-hydroxyethyl)piperazine-N′-(3-propanesulfonic acid), TRICINE (N-tris(hydroxymethyl)methylglycine), GLY-GLY (glycylglycine), BICINE (N;N-bis(2-hydroxyethyl)glycine), HEPBS (N-(2-hydroxyethyl)piperazine-N′-(4-butanesulfonic acid)), TAPS (N-tris(hydroxymethyl)methyl-3-aminopropanesulfonic acid), AMPD (2-amino-2-methyl-1,3-propanediol), and/or any other buffers known to those of skill in the art. In one embodiment, the buffer is citric acid/phosphate buffer, acetate buffer, citrate buffer or phosphate buffer. In another embodiment, the buffer is a citrate buffer (citric acid/sodium citrate). […] Buffer concentrations for use herein include from about 0 or 0.01 mM to about 150 mM, or about 1 mM to about 20 mM. In one embodiment, the buffer concentration is about 5 mM. In another embodiment, the buffer concentration is about 1 mM to about 50 mM, or about 20 mM. […] The particular buffer and buffer concentration of a given composition for long term storage provided herein may be determined empirically using standard stability assays well known to those of skill in the art (see, e.g., the Examples).
The solutions were stored at 60° C.
as §1

As usually defined, the solubility is the concentration that dissolves in the medium under given conditions. Low readings indicate little dissolved substance, high ones much dissolved substance. Turning to `COc1ccc(CC(C)NCC(O)c2ccc(O)c(NC=O)c2)cc1` (racemic) [formoterol, 2-hydroxy-5-((1RS)-1-hydroxy-2-(((1RS)-2-(p-methoxyphenyl)-1-methylethyl)amino)ethyl)formanilide], the “duration of bronchodilatory effect” value in data set [1] is “greater than 12 hours”. The “onset of bronchodilatory effect” value in data set [1] is 1 to 3 min. Further, the estimated shelf-life entry in data set [2] (5° C.) is on record as “about 6.2 years”; in data set [2] (25° C.), “about 7.5 months”. Moreover, the solubility in the data set “physchem” (aqueous buffer) was approximately 2200 µg/mL (≈ 6.39 mM); in “physchem” (pH 3, aqueous buffer), approximately 4800 µg/mL (≈ 13.9 mM); in the data set “physchem” (pH 4, aqueous buffer), approximately 3000 µg/mL (≈ 8.71 mM); in the data set “physchem” (water), approximately 2000 µg/mL (≈ 5.81 mM). The “pH at which decomposition in aqueous solution is slowest” value in data set [3] (60° C., buffer concentration 5 mM, ionic strength 0.05) was “about 5.0”. Also, the “rate constant (kobs) for decomposition of an aqueous solution” value is “approximately 0.62 day^−1” in data set [3] (60° C., pH 3, buffer concentration 5 mM, ionic strength 0.05); approximately 0.11 day⁻¹ in data set [3] (60° C., pH 4, buffer concentration 5 mM, ionic strength 0.05); approximately 0.044 day⁻¹ in data set [3] (60° C., pH 5, buffer concentration 5 mM, ionic strength 0.05); approximately 0.55 day⁻¹ in data set [3] (60° C., pH 7, buffer concentration 5 mM, ionic strength 0.05). In addition, the “effect of increasing buffer concentration from 5 mM to 20 mM on rate constant of decomposition” value in data set [3] (low and approximately neutral conditions (pH)) is “increased the rate constant of decomposition significantly”; in data set [3] (pH region of about 4.5 to about 5.5), “no noticeable differences in rate constant”.
